# Assay results published in article PMC12259270, “Sensory neuron–expressed FGF13 controls nociceptive signaling in diabetic neuropathy models” (The Journal of Clinical Investigation, 2025).
# Entries after “also recorded” stand apart in the source; their conditions may differ. Residues, ends and D or L forms follow the SMILES beside them. *: point of attachment. Cbz = O=C(OCc1ccccc1)*; OtBu = CC(C)(C)O*
# Legend:
# Nav1.7 CTD = target: T1, Nav1.7 CTD (Homo sapiens, UniProt Q15858); assay: SPR, compound binding to Nav1.7-CTD peptide
# T1 construct: purchased Ontores Biotechnologies Co; host or cells: chemical synthesis
# human Nav1.6 = target: T2, human Nav1.6 (Homo sapiens, UniProt Q9UQD0); assay: Whole-cell patch-clamp, HEK293 cells stably expressing human Nav1.6; format: cell-based
# T2 construct: expressed in transfected cells; host or cells: HEK293 stably expressing human Nav1.6
# Protocol: Whole-cell patch clamp electrophysiology
# HEK293-Nav1.7 cells, HEK293 stably expressing human Nav1.6 (HEK-Nav1.6), HEK293 stably expressing human Nav1.5 (HEK-Nav1.5), human hIPSC-derived sensory neurons (RealDRGTM from Anatomic Incorporated 1020F1-1M) and donor-derived DRG neurons were plated at low density on glass coverslips and processed for whole-cell patch clamp electrophysiology in voltage-clamp and/or current clamp mode. Whole-cell patch electrophysiological experiments were conducted following previously published studies (26). Current densities were obtained by dividing INa amplitude by membrane capacitance. Current –voltage relationships were generated by plotting current density as a function of the […]. Conductance (G Na) was calculated by the […]
# where INa is the current amplitude at voltage Vm, and Erev is the Na+ reversal potential.
# Activation curves were derived by plotting normalized GNa as a function of test potential and fitted using […]
# Where GNa,Max is the maximum conductance, Va is the membrane potential of half-maximal activation, Em is the membrane voltage and k is the slope factor. For steady -state inactivation, normalized current amplitude (INa/INa,Max) at the test potential was plotted as a function of prepulse potential (Vm) and fitted using the […]
# Where Vh is the potential of half-maximal inactivation, E m is the membrane voltage, and k is the slope factor.
# Transient INa inactivation decay was estimated with the standard exponential equation. Inactivation time constant (tau, τ) was fitted with the following equation: […]
# where I(t) is the amplitude of the current at time t and Iss is the steady-state current during a single voltage-step.
# The goodness of fitting was determined by correlation coefficient (R), and the cutoff of R was set at 0.85. To observe effects on long-term inactivation (LTI), a four-step protocol was employed during which cells were subjected to four 0 mV, 20 ms depolarization pulses separated by −90 mV, 40 ms recovery intervals. To control for various cell sizes, the current densities were calculated by dividing INa peak current amplitude/membrane capacitance (Cm). To represent the fraction of channels entering into LTI, the peak INa observed during depolarization cycles 2-4 was normalized to the peak INa observed during depolarization cycle 1 (INa/INa,Cycle 1) and plotted as a function of the depolarization cycle.
# The cumulative (frequency-dependent) use-dependency was determined by applying 20 pulses with a depolarization to −10 mV (50 ms duration) and 50 ms recovery intervals with a train of 20 pulses at 10 Hz from a holding potential at -70 mV. The current pulses were normalized to the first reco rded pulse and the currents at the 2nd to 20th pulses were compared. The same train was used to record use-dependency at various frequencies […]
# The rate of recovery from inactivation was recorded at -80 mV with a standard repriming voltage protocol.
# The cells were prepulsed to -20 mV for 20 ms to inactivate all currents, then driven back to the recovery potential (Vrec) for increasing recovery durations before the test pulse to 0 mV. The maximum pulse rate was 0.5 Hz. The […]
# follows previous publications (16). The time constants were estimated from single exponential decay to time courses measured at recovery potentials ranging from -140 to -60 mV with the protocol as mentioned above.
# Electrophysiological Recordings
# HEK293 cells: Electrophysiological recordings in HEK293 stably expressing Nav1.7 (HEK-Nav1.7), Nav1.5 (HEK-Nav1.5) or Nav1.6 (HEK-Nav1.6) were performed at room temperature using a MultiClamp 700B or an Axopatch 200B amplifier (Molecular Devices) after incubating coverslips for 60 minutes either with 0.1% DMSO or 50 μM PW164 or ZL192 in the extracellular solution. The composition of recording solutions consisted of the […]
# following salts: extracellular (mM): 140 NaCl, 3 KCl, 1 MgCl2, 1 CaCl2, 10 HEPES, 10 glucose, pH 7.3; […]
# intracellular (mM): 130 CH3O3 SCs, 1 EGTA, 10 NaCl, 10 HEPES, pH 7.3. […]
# [1] = HEK293 Nav1.6, FGF13-1a-GFP + PW164
# T2 sequence (Q9UQD0 whole entry): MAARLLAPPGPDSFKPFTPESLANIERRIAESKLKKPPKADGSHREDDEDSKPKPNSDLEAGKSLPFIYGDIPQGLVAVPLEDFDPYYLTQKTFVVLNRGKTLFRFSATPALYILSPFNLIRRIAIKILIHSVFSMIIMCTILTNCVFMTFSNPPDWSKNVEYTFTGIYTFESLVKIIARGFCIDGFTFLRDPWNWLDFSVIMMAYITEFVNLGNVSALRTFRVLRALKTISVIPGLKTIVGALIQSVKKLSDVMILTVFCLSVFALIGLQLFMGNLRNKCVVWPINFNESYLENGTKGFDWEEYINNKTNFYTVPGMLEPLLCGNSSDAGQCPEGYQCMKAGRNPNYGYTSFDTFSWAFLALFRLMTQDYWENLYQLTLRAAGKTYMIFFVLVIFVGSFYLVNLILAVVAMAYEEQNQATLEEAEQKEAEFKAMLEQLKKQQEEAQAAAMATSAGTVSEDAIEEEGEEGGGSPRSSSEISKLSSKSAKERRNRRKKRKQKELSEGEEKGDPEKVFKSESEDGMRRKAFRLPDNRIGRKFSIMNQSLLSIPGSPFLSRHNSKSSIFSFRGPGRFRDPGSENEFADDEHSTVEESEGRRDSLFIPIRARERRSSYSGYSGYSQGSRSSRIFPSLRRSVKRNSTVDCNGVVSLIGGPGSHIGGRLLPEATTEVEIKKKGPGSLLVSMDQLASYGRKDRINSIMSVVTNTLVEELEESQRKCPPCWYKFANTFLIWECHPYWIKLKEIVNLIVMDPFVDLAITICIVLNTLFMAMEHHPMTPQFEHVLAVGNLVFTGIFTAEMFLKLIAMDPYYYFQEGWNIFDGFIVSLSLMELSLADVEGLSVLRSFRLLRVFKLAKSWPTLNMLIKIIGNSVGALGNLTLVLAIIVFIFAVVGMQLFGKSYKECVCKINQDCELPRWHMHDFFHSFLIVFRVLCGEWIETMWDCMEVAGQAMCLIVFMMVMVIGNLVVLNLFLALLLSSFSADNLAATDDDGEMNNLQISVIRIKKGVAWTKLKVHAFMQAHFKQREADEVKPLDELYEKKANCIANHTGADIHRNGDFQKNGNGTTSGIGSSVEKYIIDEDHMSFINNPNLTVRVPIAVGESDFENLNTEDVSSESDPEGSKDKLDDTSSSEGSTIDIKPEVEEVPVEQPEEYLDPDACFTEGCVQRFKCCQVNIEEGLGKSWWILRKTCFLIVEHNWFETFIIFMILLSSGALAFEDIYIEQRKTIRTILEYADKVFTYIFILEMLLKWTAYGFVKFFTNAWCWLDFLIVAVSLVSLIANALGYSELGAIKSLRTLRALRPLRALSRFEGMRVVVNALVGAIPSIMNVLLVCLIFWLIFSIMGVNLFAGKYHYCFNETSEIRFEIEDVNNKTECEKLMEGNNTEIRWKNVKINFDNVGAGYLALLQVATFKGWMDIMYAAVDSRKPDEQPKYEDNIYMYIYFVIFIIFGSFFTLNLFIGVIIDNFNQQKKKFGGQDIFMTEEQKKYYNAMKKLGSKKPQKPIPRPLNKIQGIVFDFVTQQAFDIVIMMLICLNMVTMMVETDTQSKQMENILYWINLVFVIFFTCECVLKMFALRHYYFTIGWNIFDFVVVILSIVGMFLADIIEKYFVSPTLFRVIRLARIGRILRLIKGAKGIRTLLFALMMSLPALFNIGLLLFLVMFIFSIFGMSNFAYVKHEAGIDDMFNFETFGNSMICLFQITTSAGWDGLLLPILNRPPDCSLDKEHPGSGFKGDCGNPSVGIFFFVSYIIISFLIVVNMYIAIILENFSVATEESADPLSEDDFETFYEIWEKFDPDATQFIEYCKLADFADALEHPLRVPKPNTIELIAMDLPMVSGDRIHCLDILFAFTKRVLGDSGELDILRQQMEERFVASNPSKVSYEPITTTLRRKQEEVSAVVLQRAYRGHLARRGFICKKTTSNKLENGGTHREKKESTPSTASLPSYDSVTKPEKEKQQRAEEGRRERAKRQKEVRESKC
# T1 sequence (Q15858 1888-1910 limits assumed): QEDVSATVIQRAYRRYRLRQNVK
compound,measurement,setting,value
COC(=O)[C@@H](NC(=O)[C@H](CCC(=O)OC(C)(C)C)NC(=O)[C@H](CC(C)C)NC(=O)[C@@H]1CCCN1C(=O)OCc1ccccc1)C(C)C [PW164] (Cbz-PLE(OtBu)V-OMe),"KD, binding to Nav1.7 CTD",Nav1.7 CTD,no interaction
same,Activation,human Nav1.6; [1],−29.2 ± 1.2 mV
same,"Long-term inactivation, 2nd Pulse",human Nav1.6; [1],−67.4 ± 4.1 % maximal Na+ current
same,"Long-term inactivation, 3rd Pulse",human Nav1.6; [1],−59.7 ± 4.1 % maximal Na+ current
same,"Long-term inactivation, 4th Pulse",human Nav1.6; [1],−54.2 ± 4.9 % maximal Na+ current
same,Peak Density,human Nav1.6; [1],−102.7 ± 8.8 pA/pF
same,Steady state inactivation,human Nav1.6; [1],−50.8 ± 2.1 mV
same,Tau (τ),human Nav1.6; [1],1.46 ± 0.04 ms
same,activity on Nav1.6-mediated currents,human Nav1.6; HEK293 stably expressing Nav1.6 alone or coexpressing FGF13,does not modulate; also recorded: inactive
